Experimental data as given in paper PMC5017735, “A Novel Peptide Derived from the Fusion Protein Heptad Repeat Inhibits Replication of Subacute Sclerosing Panencephalitis Virus In Vitro and In Vivo” (PLoS ONE, 2016).
Peptide text beside a SMILES is read from it.

Key:
[1] = test system: SSPE Yamagata-1 strain; test: Viral plaque reduction assay, SSPE virus in Vero cells; assay type: cell-based, SSPE virus (variant measles virus); details: for inhibition of plaque formation compared with the control group, SSPE Yamagata-1 strain (peptide screening): peptide 10 μM, Vero cells and Vero/SLAM cells (Fig 2C), duplicate, at least twice independently; for EC50: plaque reduction, SSPE Yamagata-1 strain, mean ± SD; for EC50 / SI, SSPE virus (Vero cells): Vero cells; for SI, SSPE virus (Vero cells): selectivity index, ratio of CC50 relative to EC50
Protocol: (§1) African green monkey kidney (Vero) cells and Vero cells expressing human SLAM (Vero/SLAM cells) were used in all experiments. The growth medium for Vero cells comprised minimal essential medium (MEM) supplemented with 10% heat-inactivated newborn bovine serum, penicillin G (100 IU/ml), streptomycin (100 μg/ml), and L-glutamine (300 μg/ml). The same growth medium, which was further supplemented with G418 (400 μg/ml), was used for Vero/SLAM cells. Cells were seeded into the wells (22 mm) of 12-well tissue culture plates at 1 × 10^5 cells/well and incubated at 37°C in a 10% CO2 incubator for 3 days, at which time they had just reached confluence. The virus strains used were human MV Edmonston strain and SSPE Yamagata-1 [34], which was originally isolated from the brain of an SSPE patient. The Edmonston strain of MV was used to inoculate Vero/SLAM cells and harvested after freeze–thawing infected cells. The SSPE Yamagata-1 strain was cultured in Vero/SLAM cells, harvested by trypsinization, prepared as an infected cell suspension in the Vero/SLAM cell medium supplemented with 10% dimethyl sulfoxide, and stored at −80°C until use.
(§2) Screening was performed to evaluate the antiviral effects of each synthetic peptide against the MV and SSPE viruses using the viral plaque reduction assay. Based on the results of the peptide screening, the 50% effective concentration (EC50), i.e., the concentration of compounds required to inhibit virus plaque formation by 50%, was also determined. The Human MV Edmonston strain was used to produce cell-free virions, which yielded a reproducible number of syncytia [generally 200–300 plaque-forming units (PFUs)] in the control wells. The SSPE virus was also used to yield a reproducible number of syncytia (generally 70–150 PFU) in control wells. In the peptide screening assay, each synthetic peptide was used at a concentration of 10 μM. IFN-α and enfuvirtide, a peptide fusion inhibitor of HIV-1, were used as controls at a concentration of 250 IU/ml and 10 μM, respectively.

[2] = test system: SSPE Yamagata-1 strain; test: Viral plaque reduction assay, SSPE virus in Vero/SLAM cells; assay type: cell-based, SSPE virus (variant measles virus); details: for EC50: plaque reduction, SSPE Yamagata-1 strain, mean ± SD; for SI, SSPE virus (Vero/SLAM cells): selectivity index, ratio of CC50 relative to EC50
Protocol: as §1, §2

[3] = test system: MV Edmonston strain; test: Viral plaque reduction assay, measles virus in Vero cells; assay type: cell-based; details: for EC50: plaque reduction, MV Edmonston strain, mean ± SD; for EC50 / SI, measles virus (Vero cells): Vero cells; for SI, measles virus (Vero cells): selectivity index, ratio of CC50 relative to EC50
Protocol: as §1, §2

[4] = test system: SSPE virus; test: Time-of-addition experiments, SSPE virus in Vero cells; assay type: cell-based, SSPE virus (variant measles virus)
Protocol: Synthetic peptides, M1 and M2EK (10 μM each) were used in time-of-addition experiments. Each peptide was added to Vero cells at three distinct time points: prior to infection (pretreatment with the compound), at the same time as the virus infection (simultaneous infection), or post-infection (post-entry). The SSPE virus was prepared to yield a reproducible number of syncytia in untreated control wells (approximately 50–100/well). In the pretreatment assay, peptide was added to confluent cells and incubated at 37°C for 30 min, and the cell cultures were washed with MEM before viral inoculation. Cells were then challenged with the SSPE virus at 0°C for 30 min. In the simultaneous infection assay, SSPE virus with peptide was inoculated at 0°C for 30 min. After the adsorption, the cell cultures were subsequently washed with MEM, and growth medium containing 0.75% methylcellulose was overlaid on the cell cultures, followed by incubation for 3 days in both pretreatment and simultaneous infection assays. In the post-entry assay, cells were challenged with the SSPE virus at 0°C for 30 min. After adsorption, the cell cultures were subsequently washed with MEM and peptide, which was prepared in growth medium containing 0.75% methylcellulose, was subsequently overlaid on the cell cultures at distinct time points. The starting point when cells were incubated at 0°C for 30 min was defined as t0.

[5] = In vivo toxicity, mice administered peptides alone; parameters: species or system BALB/cAJcl-nu/nu mice; details: peptide 100 μM intracranial, no virus infection
Protocol: Based on a previous report, but with slight modifications, 3-week-old female BALB/cAJcl-nu/nu mice (CLEA Japan Inc., Tokyo, Japan) were used in the animal experiments. Mice were divided in four groups (n = 6 for each cage) and housed with free access to both water and food and monitored daily. The mice were SSPE virus-infected or mock-infected (MEM alone) intracranially. An SSPE virus-infected cell suspension containing 250 PFU/ 30 μl (100% lethal dose) was inoculated into the subarachnoid space of nude mice using a 27-gauge double needle at a depth of 2 mm. Each compound was prepared at a concentration of 100 μM and was injected intracranially at 0 (mixed with viruses), 6, and 24 h after the initial virus inoculation. All injections were performed under inhalational anesthesia with isoflurane. Each mouse was checked for neurological symptoms and weighed daily. The ethical endpoint was defined as <75% of their maximum weight because most mice would die within 24 h. On attaining this endpoint, the mice were sacrificed by cervical dislocation under inhalational anesthesia with isoflurane. In this experiment, five mice died of natural causes before the ethical endpoint; however, all mice had neurological symptoms and 9.5%, 13.2%,14.5%, 15.8%, 16.4% weight loss (one each) relative to their maximum weight. This study was approved by the control of the Animal Research Committee in accordance with the Guidelines on Animal Experiments in Fukushima Medical University and the Rules for the Protection and Care of Animals (approval number: 23038).

[6] = test system: Vero cells; test: Methyl tetrazolium cytotoxicity assay, Vero cells; assay type: cell-based, African green monkey; details: confluent Vero cells, 24 h, 37°C
Protocol: (§3) Peptide cytotoxicity was determined using the methyl tetrazolium assay. Five-fold serial dilutions of peptides were added to confluent Vero or Vero/SLAM cells. Cells were then incubated at 37°C for 24 h, and the number of viable cells was determined using 3-(4,5-dimethyllthiazol-2-yl)-2,5-diphenylterazolium bromide (Sigma–Aldrich, Tokyo, Japan). The 50% cytotoxic concentration (CC50), which was defined as the concentration required to reduce the cell viability by 50% relative to that of untreated controls, was determined. The selectivity index (SI) was defined as the ratio of the CC50 relative to the EC50 value.

[7] = test system: Vero/SLAM cells; test: Methyl tetrazolium cytotoxicity assay, Vero/SLAM cells; assay type: cell-based, African green monkey; details: confluent Vero/SLAM cells, 24 h, 37°C
Protocol: as §3

| Compound | inhibition of plaque formation compared with the control group, SSPE Yamagata-1 strain (peptide screening) [1] | EC50 [1] | EC50 [2] | EC50 [3] | SI, measles virus (Vero cells) [3] | SI, SSPE virus (Vero cells) [1] | SI, SSPE virus (Vero/SLAM cells) [2] | viral inhibitory effect, peptide added post-infection (post-entry) ([4]; peptide 10 μM overlaid at distinct time points after adsorption) | viral plaque numbers, peptide added before viral adsorption or at the same time as virus inoculation ([4]; peptide 10 μM, pretreatment 37°C 30 min or simultaneous with SSPE virus 0°C 30 min, compared with control) | survival of mice administered with peptides alone, with no symptoms [5] | CC50, SSPE virus (Vero cells) [6] | CC50, measles virus (Vero cells) [6] | CC50, SSPE virus (Vero/SLAM cells) [7] | inhibition of MV Edmonston plaque formation compared with the control group (peptide screening) ([3]; peptide 10 μM (Fig 2C), duplicate, at least twice independently) |
| --- | --- | --- | --- | --- | --- | --- | --- | --- | --- | --- | --- | --- | --- | --- |
| CC[C@H](C)[C@H](NC(C)=O)C(=O)N[C@@H](CCC(=O)O)C(=O)N[C@@H](CCC(=O)O)C(=O)N[C@@H](CCC(=O)O)C(=O)N[C@@H](CCCNC(=N)N)C(=O)N[C@@H](CCCCN)C(=O)N[C@@H](CCCCN)C(=O)N[C@H](C(=O)N[C@@H](CCC(=O)O)C(=O)N[C@@H](CCC(=O)O)C(=O)N[C@@H](CC(N)=O)C(=O)N[C@@H](CC(C)C)C(=O)N[C@@H](CCCCN)C(=O)N[C@@H](CCCCN)C(=O)N[C@@H](C)C(=O)N[C@@H](CCC(=O)O)C(=O)N[C@@H](CCC(=O)O)C(=O)N[C@@H](CCCCN)C(=O)N[C@@H](CC(C)C)C(=O)N[C@@H](CCCCN)C(=O)N[C@@H](CCCCN)C(=O)N[C@@H](C)C(=O)N[C@@H](CCC(=O)O)C(=O)N[C@@H](CCC(=O)O)C(=O)N[C@@H](CC(C)C)C(=O)N[C@@H](CC(C)C)C(=O)N[C@@H](CCCCN)C(=O)N[C@@H](CCCCN)C(=O)N[C@@H](CO)C(=O)N[C@@H](CCC(=O)O)C(=O)N[C@@H](CCC(=O)O)C(=O)N[C@H](C(=O)N[C@@H](CC(C)C)C(=O)N[C@@H](CCCCN)C(=O)N[C@@H](CCCCN)C(N)=O)[C@@H](C)CC)C(C)C [Peptide M1EK] (Ac-IEEERKKVEENLKKAEEKLKKAEELLKKSEEILKK-NH2) | > 97% | 0.12 ± 0.05 µM | 0.17 ± 0.02 µM | – | – | – | – | – | – | – | – | – | – | – |
| CC[C@H](C)[C@H](NC(C)=O)C(=O)N[C@@H](CO)C(=O)N[C@@H](CC(C)C)C(=O)N[C@@H](CCC(=O)O)C(=O)N[C@@H](CCCNC(=N)N)C(=O)N[C@@H](CC(C)C)C(=O)N[C@@H](CC(=O)O)C(=O)N[C@H](C(=O)NCC(=O)N[C@H](C(=O)N[C@@H](CC(N)=O)C(=O)N[C@@H](CC(C)C)C(=O)NCC(=O)N[C@@H](CC(N)=O)C(=O)N[C@@H](C)C(=O)N[C@H](C(=O)N[C@@H](C)C(=O)N[C@@H](CCCCN)C(=O)N[C@@H](CC(C)C)C(=O)N[C@@H](CCC(=O)O)C(=O)N[C@@H](CC(=O)O)C(=O)N[C@@H](C)C(=O)N[C@@H](CCCCN)C(=O)N[C@@H](CCC(=O)O)C(=O)N[C@@H](CC(C)C)C(=O)N[C@@H](CC(C)C)C(=O)N[C@@H](CCC(=O)O)C(=O)N[C@@H](CO)C(=O)N[C@@H](CO)C(=O)N[C@@H](CC(=O)O)C(=O)N[C@@H](CCC(N)=O)C(=O)N[C@H](C(=O)N[C@@H](CC(C)C)C(=O)N[C@@H](CCCNC(=N)N)C(=O)N[C@@H](CO)C(N)=O)[C@@H](C)CC)[C@@H](C)CC)[C@@H](C)O)C(C)C [Peptide M1] | > 97% | 0.01 ± 0.01 µM | 0.01 ± 0.01 µM | 0.03 ± 0.01 µM | >3663 | >7519 | >9524 | observed in a time-dependent manner, particularly within 24 h | no reduction in viral plaque numbers | > 45 days | – | – | – | – |
| CC[C@H](C)[C@H](NC(=O)[C@H](C)NC(=O)[C@H](CC(N)=O)NC(=O)CNC(=O)[C@H](CC(C)C)NC(=O)[C@H](CC(N)=O)NC(=O)[C@@H](NC(=O)CNC(=O)[C@@H](NC(C)=O)C(C)C)[C@@H](C)O)C(=O)N[C@@H](C)C(=O)N[C@@H](CCCCN)C(=O)N[C@@H](CC(C)C)C(=O)N[C@@H](CCC(=O)O)C(=O)N[C@@H](CC(=O)O)C(=O)N[C@@H](C)C(=O)N[C@@H](CCCCN)C(=O)N[C@@H](CCC(=O)O)C(=O)N[C@@H](CC(C)C)C(=O)N[C@@H](CC(C)C)C(=O)N[C@@H](CCC(=O)O)C(=O)N[C@@H](CO)C(=O)N[C@@H](CO)C(=O)N[C@@H](CC(=O)O)C(=O)N[C@@H](CCC(N)=O)C(=O)N[C@H](C(=O)N[C@@H](CC(C)C)C(=O)N[C@@H](CCCNC(=N)N)C(=O)N[C@@H](CO)C(=O)N[C@@H](CCSC)C(=O)N[C@@H](CCCCN)C(=O)NCC(=O)N[C@@H](CC(C)C)C(=O)N[C@@H](CO)C(=O)N[C@@H](CO)C(=O)N[C@H](C(N)=O)[C@@H](C)O)[C@@H](C)CC [Peptide M2] | – | 0.26 ± 0.17 µM | 0.48 ± 0.22 µM | 0.12 ± 0.04 µM | >805 | >377 | >209 | – | – | – | >100 µM | >100 µM | >100 µM | – |
| Enfuvirtide | lower antiviral activity | > 10 µM | > 10 µM | > 10 µM | – | – | – | – | – | – | – | – | – | lower antiviral activity |
| enfuvirtide | – | – | – | – | – | – | – | – | – | > 45 days | >100 µM | >100 µM | >100 µM | – |
